What was measured:
SMN2 Protein = assay: SMN Protein Assay (MSD); type: cell-based, human; details: SMA patient fibroblasts, 48 hours, 0.6 nM to 2.5 µM
Experimental: Spinal muscular atrophy (SMA) patient fibroblasts were plated in 96-well plates at 7,000 cells/well. Compounds were added in concentrations ranging from 0.6 nM to 2.5 µM, incubated for 48 hours and the cells were lysed with 100 µL of lysis buffer. 20 µL of lysate was used for SMN protein measurement by Mesoscale Discovery (MSD) assay developed by PharmOptima (Michigan). A standard curve prepared with SMN protein ranging from 1 µg/ml to 19.5pg/ml was used in each MSD plate to calculate the absolute SMN protein amount in each sample.

[1] = tested on: SMN2 Splicing D7 (SMN Δ7 transcript); assay: SMN Quantitative Splicing Assay (qPCR); type: cell-based, human; details: 24 h, SMA patient fibroblasts (GM03813), 2.5 µM to 0.6 nM
Experimental: Spinal muscular atrophy (SMA) patient fibroblasts (GM03813, Coriell) were plated in 96-well plates at 50,000 cells/well. […] Treated cells were lysed and cDNA synthesized using the Fast Advanced Cells-to-Ct kit (Thermofisher A35378) according to the manufacturer’s instructions. 2 µL of each cDNA were used in qPCR reactions. […] Reactions were run in a Quant Studio 6 qPCR instrument with default settings.

Structure (SMILES)	EC50 (SMN2 Protein)	IC50 ([1]; Homo sapiens, Fibroblast)	IC50 [1]
Cc1nc2cc(O)c(-c3ncc(N(C)[C@@H]4CC5CC[C@H](N5)[C@@H]4F)nn3)cc2nc1C [Compound 55]	16 to 50 nM	16 to 50 nM	
CN(c1cnc(-c2cc3occc(=O)c3cc2O)nn1)[C@H]1C[C@@H]2COCC(N2)[C@H]1F [Compound 68]	501 to 10000 nM	101 to 500 nM	
CN(c1cnc(-c2cc3cnn(C)c(=O)c3cc2O)nn1)[C@@H]1CC2CCC(N2)[C@@H]1F (single isomer, unassigned) [Compound 2A]	0.01 to 15 nM	0.01 to 15 nM	
[2H]C([2H])([2H])n1ccc2cc(-c3ncc(N(C)[C@H]4CC5CCC(N5)[C@H]4F)nn3)c(O)cc2c1=O (some centres unmarked) [Compound 157]	16 to 50 nM	16 to 50 nM	
[2H]C([2H])([2H])N(c1cnc(-c2cc3c(F)cn(C([2H])([2H])[2H])c(=O)c3cc2O)nn1)[C@@H]1C[C@H]2CC[C@H](N2)[C@@H]1F [Compound 194]	0.01 to 15 nM	0.01 to 15 nM	
CN(c1cnc(-c2cc3c(F)cn(C)c(=O)c3cc2O)nn1)[C@@H]1CC2CC[C@H](N2)[C@@H]1F [Compound 65]	0.01 to 15 nM	16 to 50 nM	
Cc1cc2cc(-c3ncc(N(C)[C@@H]4CC5CCCC(N5)[C@@H]4F)nn3)c(O)cc2cn1 (some centres unmarked) [Compound 47]	16 to 50 nM	51 to 100 nM	
[2H]C([2H])([2H])N(c1cnc(-c2cc3ccn(C([2H])([2H])[2H])c(=O)c3cc2O)nn1)[C@@H]1CC2CC[C@H](N2)[C@@H]1F [Compound 168]	0.01 to 15 nM	51 to 100 nM	
Cc1nc2cc(O)c(-c3ncc(N(C)[C@@H]4C[C@@]5(C)CC[C@](C)(N5)[C@@H]4F)nn3)cc2nc1C [Compound 88]	51 to 100 nM	16 to 50 nM	
CCn1cnc2cc(-c3ncc(N(C)C4CC5CCC(N5)[C@H]4F)nn3)c(O)cc2c1=O (some centres unmarked) [Compound 32]	0.01 to 15 nM	0.01 to 15 nM	
[2H]C([2H])([2H])N(c1cnc(-c2cc3ccn(C([2H])([2H])[2H])c(=O)c3cc2O)nn1)[C@H]1C[C@@H]2CCC(N2)[C@H]1F [Compound 167]	0.01 to 15 nM	0.01 to 15 nM	
CN(c1cnc(-c2cc3cccnc3cc2O)nn1)C1CC2CCC(N2)[C@@H]1F (some centres unmarked) [Compound 23]	501 to 10000 nM	101 to 500 nM	
Cc1nc2cc(O)c(-c3ncc(N(C)[C@@H]4C[C@H]5CCC(N5)[C@@H]4F)nn3)cc2nc1C [Compound 86]	51 to 100 nM	51 to 100 nM	
CCn1c(C)c(F)c2cc(-c3ncc(N(C)[C@H]4C[C@@H]5CCC(N5)[C@H]4F)nn3)c(O)cc2c1=O [Compound 223]	0.01 to 15 nM	0.01 to 15 nM	
Cc1cc(=O)c2cc(-c3ncc(N(C)[C@@H]4C[C@H]5CC[C@H](N5)[C@@H]4F)nn3)c(O)cc2o1 (single isomer, unassigned) [Compound 1A]	16 to 50 nM	16 to 50 nM	
[2H]C([2H])([2H])N(c1cnc(-c2cc3c(F)cn(C([2H])([2H])[2H])c(=O)c3cc2O)nn1)[C@H]1C[C@@H]2CC[C@@H](N2)[C@H]1C [Compound 193]	0.01 to 15 nM	0.01 to 15 nM	
CN(c1cnc(-c2cc3ccn(C)c(=O)c3cc2O)nn1)[C@H]1CC2CCC(N2)[C@H]1F (single isomer, unassigned) [Compound 4B]	0.01 to 15 nM	0.01 to 15 nM	
CCc1cc(=O)c2cc(-c3ncc(N(C)[C@@H]4C[C@H]5CCC(N5)[C@@H]4F)nn3)c(O)cc2o1 [Compound 117]	16 to 50 nM	51 to 100 nM	
CN(c1cnc(-c2cc3occc(=O)c3cc2O)nn1)[C@@H]1C[C@@]2(C)CCC[C@](C)(N2)[C@@H]1F [Compound 61]	0.01 to 15 nM	51 to 100 nM	
CN(c1cnc(-c2cc3ccn(C)c(=O)c3cc2O)nn1)[C@H]1C[C@]2(C)COC[C@](C)(C1)N2 [Compound 152]	0.01 to 15 nM	0.01 to 15 nM	
CN(c1cnc(-c2cc3nccnc3cc2O)nn1)C1CC2CCC(N2)C1F (centres unmarked) [Compound 20]	16 to 50 nM	16 to 50 nM	
CN(c1cnc(-c2cc3c(F)cn(C)c(=O)c3cc2O)nn1)C1CC2CCCC(N2)[C@@H]1F (some centres unmarked) [Compound 138]	0.01 to 15 nM	16 to 50 nM	
Cc1cnc2cc(O)c(-c3ncc(N(C)[C@@H]4CC5CCCC(N5)[C@@H]4F)nn3)cc2n1 (some centres unmarked) [Compound 159]	0.01 to 15 nM	16 to 50 nM	

Structure (SMILES)	EC50 (SMN2 Protein)	IC50 ([1]; Homo sapiens, Fibroblast)	IC50 [1]
CC(C)n1cnc2cc(-c3ncc(N(C)C4CC5CCC(N5)[C@H]4F)nn3)c(O)cc2c1=O (some centres unmarked) [Compound 30]	101 to 500 nM	101 to 500 nM	
Cc1cc2cc(O)c(-c3ncc(N(C)[C@@H]4CC5CCC(N5)[C@@H]4F)nn3)cc2cn1 (some centres unmarked) [Compound 45]	16 to 50 nM	16 to 50 nM	
CCn1cc(F)c2cc(-c3ncc(N(C)[C@@H]4CC5CC(F)(F)C(C4)N5)nn3)c(O)cc2c1=O (some centres unmarked) [Compound 211]	501 to 10000 nM	101 to 500 nM	
CN(c1cnc(-c2cc3occc(=O)c3cc2O)nn1)[C@H]1C[C@@H]2CCC(N2)[C@H]1F [Compound 18]	0.01 to 15 nM	0.01 to 15 nM	
Cc1cnc2cc(-c3ncc(N(C)[C@H]4CC5CCCC(N5)[C@H]4F)nn3)c(O)cc2n1 (some centres unmarked) [Compound 106]	0.01 to 15 nM	16 to 50 nM	
Cc1coc2cc(-c3ncc(N(C)C4CC5CCC(N5)[C@@H]4F)nn3)c(O)cc2c1=O (some centres unmarked) [Compound 27]	0.01 to 15 nM	0.01 to 15 nM	
Cc1nc2cc(-c3ncc(N(C)[C@H]4CC5CC[C@@H](N5)[C@H]4F)nn3)c(O)cc2c(=O)n1C [Compound 205]	0.01 to 15 nM	0.01 to 15 nM	
CC(C)n1ncc2cc(-c3ncc(N(C)C4CC5CCC(N5)[C@@H]4F)nn3)c(O)cc2c1=O (some centres unmarked) [Compound 29]	501 to 10000 nM	501 to 10000 nM	
CCn1c(C)nc2cc(-c3ncc(N(C)[C@@H]4CC5CC(F)(F)C(C4)N5)nn3)c(O)cc2c1=O (some centres unmarked) [Compound 214]	501 to 10000 nM	501 to 10000 nM	
CN(c1cnc(-c2cc3occ(C(F)(F)F)c(=O)c3cc2O)nn1)[C@@H]1C[C@H]2CC[C@H](N2)[C@@H]1F [Compound 89]	51 to 100 nM	101 to 500 nM	
CN(c1cnc(-c2cc3c(F)cn(C)c(=O)c3cc2O)nn1)[C@@H]1CC2CC[C@](C)(N2)[C@@H]1F [Compound 188]	0.01 to 15 nM	0.01 to 15 nM	
CN(c1cnc(-c2cc3oc(C(F)(F)F)cc(=O)c3cc2O)nn1)[C@@H]1CC2CCCC(N2)[C@@H]1F (some centres unmarked) [Compound 161]	0.01 to 15 nM	51 to 100 nM	
CN(c1cnc(-c2cc3ccn(C)c(=O)c3cc2O)nn1)C1CC2CC(F)(F)C(C1)N2 (centres unmarked) [Compound 141]	101 to 500 nM		101 to 500 nM
Cc1cc2cc(-c3ncc(N(C)[C@H]4CC5CCCC(N5)[C@H]4F)nn3)c(O)cc2cn1 (some centres unmarked) [Compound 48]	0.01 to 15 nM	0.01 to 15 nM	
CN(c1cnc(-c2cc3ncn(C)c(=O)c3cc2O)nn1)[C@H]1C[C@]2(C)COC[C@](C)(C1)N2 [Compound 150]	0.01 to 15 nM	0.01 to 15 nM	
Cc1ncc2cc(-c3ncc(N(C)[C@H]4C[C@@H]5CCC(N5)[C@H]4F)nn3)c(O)cc2n1 [Compound 72]	51 to 100 nM	51 to 100 nM	
CCn1ccc2cc(O)c(-c3ncc(N(C)[C@H]4CC5CC[C@@H](N5)[C@H]4F)nn3)cc2c1=O [Compound 84]	0.01 to 15 nM	0.01 to 15 nM	
CN(c1cnc(-c2cc3c(=O)n(C)ccc3cc2O)nn1)[C@@H]1CC2CC[C@H](N2)[C@@H]1F [Compound 81]	16 to 50 nM	51 to 100 nM	
Cc1ncc2cc(O)c(-c3ncc(N(C)[C@@H]4CC5CCC(N5)[C@@H]4F)nn3)cc2n1 (single isomer, unassigned) [Compound 39]	51 to 100 nM	101 to 500 nM	
[2H]C([2H])([2H])n1cnc2cc(-c3ncc(N(C)[C@H]4C[C@@H]5CCC(N5)[C@H]4F)nn3)c(O)cc2c1=O [Compound 177]	0.01 to 15 nM	0.01 to 15 nM	
CN(c1cnc(-c2cc3ncn(C(F)F)c(=O)c3cc2O)nn1)[C@H]1CC2CC[C@@H](N2)[C@H]1F [Compound 195]	0.01 to 15 nM	0.01 to 15 nM	
CCn1c(C)nc2cc(-c3ncc(N(C)[C@H]4CC5CC(F)(F)C(C4)N5)nn3)c(O)cc2c1=O (some centres unmarked) [Compound 215]	16 to 50 nM	16 to 50 nM	
CN(c1cnc(-c2cc3cc[nH]c(=O)c3cc2O)nn1)[C@H]1C[C@@H]2CCC(N2)[C@H]1F [Compound 169]	0.01 to 15 nM	16 to 50 nM	

— patent publication US20230331718A1, “COMPOSITIONS FOR MODULATING SPLICING” (Skyhawk Therapeutics, Inc., priority 2020, published 2023)
